Measured values reported in patent US20200345746A1, “Oxazine Derivative for Use in the Prevention of Alzheimer's Disease in at Risk Patents” (Novartis AG, priority 2016, published 2020).
Marks after values point to notes of the source that are not given here.

Experiments:
C57BL/6 mice = test: Fur colour scoring, chronic 8-week dosing in wild-type mice; assay type: in vivo, mouse
Method: (§1) Compound 1 and NB-360 were formulated as a suspension. […] Vehicle: […] in 0.5% methylcellulose in water.
(§2) Body weight was taken 3 times per week (Monday, Wednesday, Friday). Subjective scoring of any hair colour changes was performed once weekly (Wednesday). Scores (% of body with grey fur): 0: No change; 1: Spots; 2: >30%; 3: >50%; 4: >75%; 5: 100%. Animals were photo-documented when fur color change was observed. Final fur color scoring was performed blinded and by a person not involved in the study.

[1] = Body weight, chronic 8-week dosing in wild-type mice; assay type: in vivo, mouse; conditions: C57BL/6 mice, 8 weeks chronic treatment
Method: as §1, §2

[2] = Compound levels in blood, brain and skin of C57BL/6 mice (HPLC/MS/MS); conditions: for AUCbrain (AUC0-24 h) / AUCventral skin (AUC0-24 h) / AUCdorsal skin (AUC0-24 h) / AUC(0-t): day 56; for AUCbrain (AUC0-24 h) / AUCventral skin (AUC0-24 h) / AUCdorsal skin (AUC0-24 h): from 4 and 24 h; for AUC(0-t): whole blood, po, AUCblood (AUC0-24 h)
From the text: Blood samples were used to analyze whole-blood compound levels and were obtained either from tail-vein during the in-life part into EDTA tubes (CB300, Sarstedt, Germany) or from trunk blood at the day of necropsy into EDTA Eppendorf tubes (Milian S A, CatNoTOM-14, Fisher Scientific, Wohlen, Switzerland), or into serum tubes (CB300Z, Sarstedt, Nümbrecht, Germany).
Brain was removed immediately after decapitation, rinsed with saline and sectioned sagitally down the midline. The left half of the cerebellum was used to analyze compound level and was placed into a glass tube (Chromacol, 125×5-SV T051, Welwyn Garden City, United Kingdom), weighed and frozen in dry-ice, the left half of the forebrain (without olfactory bulb) was used for Aβ analysis, and was frozen on a metal plate on dry ice and placed into protein Lo-bind tube (003 0108.116, Eppendorf, Hamburg, Germany).
Ventral and dorsal skin were taken to analyze compound level, weighed and frozen on dry-ice.
Brain samples were mixed with 2 volumes of KH2PO4 buffer and homogenized using the Covaris® device. Skin samples were mixed with approx. 6-fold volumes of methanol/water and homogenized using a Precellys tube. Either 30 μL of blood, brain or skin homogenate were spiked with a structurally related internal standard and subsequently mixed with an at least 6-fold excess volume acetonitrile for protein precipitation. The supernatant was injected directly into the LC/MS/MS system for analysis.
For tissue exposure, only data at 4 and 24 h were available.

With `Cc1cc(C#N)cnc1C(=O)Nc1ccc(F)c([C@]2(C)CO[C@@](C)(C(F)(F)F)C(N)=N2)c1` [NB-360, N-(3-((3R,6R)-5-amino-3,6-dimethyl-6-(trifluoromethyl)-3,6-dihydro-2H-1,4-oxazin-3-yl)-4-fluorophenyl)-5-cyano-3-methylpicolinamide] the “fur discoloration reached a plateau after” value (C57BL/6 mice) was 5 weeks, the fur colour change (C57BL/6 mice; 20 μmol/kg p.o. once daily, 8 weeks) was “slight but significant fur score change” and the fur colour change (C57BL/6 mice; 100 μmol/kg p.o. once daily, 8 weeks) was “more severe and profound fur color change”. The fur discoloration (C57BL/6 mice; 20 and 100 μmol/kg groups, 8 weeks) was “All animals in the NB-360 group showed fur discoloration”, the “appearance of grey patches apparent after” value (C57BL/6 mice; high and low dose group) was 3 weeks and the “body weight difference compared to vehicle” value [1] was “No overall significant body weight difference”. For the same molecule, the “AUCbrain (AUC0-24 h)” value ([2]; C57BL/6, 20 μmol/kg q.d.) was 16.39 µmol·h/kg, the “AUCventral skin (AUC0-24 h)” value ([2]; C57BL/6, 20 μmol/kg q.d.) was 104.81 µmol·h/kg and the “AUCdorsal skin (AUC0-24 h)” value ([2]; C57BL/6, 20 μmol/kg q.d., n = 2 for 24 h) was 46.9^c μmol/kg · h. For the same molecule, the “AUCbrain (AUC0-24 h)” value ([2]; C57BL/6, 100 μmol/kg q.d.) was 114.45 µmol·h/kg, the “AUCdorsal skin (AUC0-24 h)” value ([2]; C57BL/6, 100 μmol/kg q.d.) was 294 µmol·h/kg and the “AUCventral skin (AUC0-24 h)” value ([2]; C57BL/6, 100 μmol/kg q.d.) was 712.16 µmol·h/kg. For the same molecule, the Kp ([2]; C57BL/6, mouse, brain / whole blood, oral) was 2.8, the AUC(0-t) ([2]; C57BL/6, mouse, 20 umol/kg, C57BL/6, 20 μmol/kg q.d., from 1, 4, 7, 24 h time points) was 6.93 µM·h and the AUC(0-t) ([2]; C57BL/6, mouse, 20 umol/kg, C57BL/6, 20 μmol/kg q.d., from 4 and 24 h time points) was 5.6 µM·h. For the same molecule, the AUC(0-t) ([2]; C57BL/6, mouse, 100 umol/kg, C57BL/6, 100 μmol/kg q.d., from 1, 4, 7, 24 h time points) was 35.9 µM·h and the AUC(0-t) ([2]; C57BL/6, mouse, 100 umol/kg, C57BL/6, 100 μmol/kg q.d., from 4 and 24 h time points) was 25.3 µM·h.
